Results on ten compounds are retold here after ChEMBL document CHEMBL1938305, “Antioxidative oligostilbenes from Caragana sinica” (Bioorg Med Chem Lett, 2012).

Test [1] is described as follows: Antioxidant activity assessed as inhibition of lipid peroxidation. In kind it is functional.
The subject of test [2] is Radical scavenging activity. Nature of the test: Antioxidant activity assessed as DPPH free radical scavenging activity after 30 mins by microplate reader assay. Type of test: functional. (DPPH is a stable violet radical that fades when it is reduced.)

Regarding `Oc1ccc([C@H]2c3c(O)cc(O)cc3[C@H]3c4c(O)cc(O)cc4[C@@H]2[C@H]3c2ccc(O)cc2)cc1`, the IC50 in test [1] and in test [2] was more than 200 µM throughout.

Consider `Oc1ccc(C2[C@H]3c4cc(O)cc(O)c4[C@@H](c4ccc(O)cc4)[C@@H]2c2cc(O)cc(O)c23)cc1` (stereo partly drawn), for which the IC50 in test [1] and in test [2] was more than 200 µM in each case.

As for `Oc1ccc([C@H]2Oc3cc(O)cc4c3[C@@H]2c2cc(O)cc3c2[C@@H](c2cc(O)cc5c2[C@@H]4[C@H](c2ccc(O)cc2)O5)[C@H](c2ccc(O)cc2)O3)cc1` (relative stereo), the IC50 in test [1] and in test [2] was more than 200 µM throughout.

For `Oc1ccc([C@@H]2c3c(O)cc(O)cc3[C@H]3[C@H](c4ccc(O)cc4)c4c(O)cc(O)cc4[C@@H]23)cc1` (relative stereo) [PALLIDOL], the IC50 was 128 µM in test [1] and 165 µM in test [2].

Regarding `Cc1c(C)c2c(c(C)c1O)CC[C@@](C)(CCC[C@H](C)CCC[C@H](C)CCCC(C)C)O2` [ALPHA-TOCOPHEROL], the IC50 in test [1] came out at 12.5 µM.

Turning to `O=C1O[C@H]([C@@H](O)CO)C(O)=C1O` [ASCORBIC ACID], the IC50 in test [2] was 57.2 µM.

As to `O=C(c1ccc(O)cc1)[C@H]1c2cc(O)cc(O)c2[C@@H](c2ccc(O)cc2)[C@H]1c1cc(O)cc(O)c1` [CARAPHENOL B], the results for the IC50 in test [1] and in test [2] were 43.1 µM and 73.9 µM, respectively.

For `COc1cc(O)cc2c1C(=O)C(O)(Cc1ccc(O)cc1)O2` (stereo not drawn) [CARPUSIN], the IC50 in test [1] and in test [2] was more than 200 µM throughout.

For `Oc1ccc([C@H]2Oc3cc(O)cc([C@@H]4[C@H](c5cc(O)cc(O)c5)[C@@H](c5ccc(O)cc5)O[C@H]4c4ccc(O)cc4)c3[C@@H]2c2cc(O)c3c(c2)[C@@H](c2cc(O)cc(O)c2)[C@H](c2ccc(O)cc2)O3)cc1` [KOBOPHENOL A], the IC50 in test [1] and in test [2] was more than 200 µM throughout.

On to `Oc1ccc(/C=C/c2cc(O)cc(O)c2)cc1` [RESVERATROL], for which the IC50 in test [1] came out at 30.1 µM; in test [2] it was 92.1 µM.

As usually defined, the IC50 is the concentration that inhibits the measured activity by half.
